Results reported in patent publication US20260115331A1, “PET IMAGING OF BACTERIAL INFECTION WITH A PET PROBE” (Mayo Foundation for Medical Education and Research, priority 2022, published 2026).

Legend:
[1] = test system: E coli; assay: Biodistribution in thigh infected mice (E. coli) at 120 min post injection; assay type: in vivo; conditions: n = 4, 2 h post infection with E coli
Source text: (§1) The feasibility of the developed PET probe [^68Ga]Ga-H3P2O8 in a mouse model of thigh infection as well as uptake in E. coli has been evaluated. […] The biodistribution of developed PET probe in normal and in thigh infected mice has been assessed (see FIG. 11). […] Micro-PET imaging of normal and thigh-infected mice has also been performed. The site of bacterial infection was evident on micro-PET images (see FIG. 13) with arrows in contrast to the non-infected group of mice. The bacterial site of infection on micro-PET images was confirmed by bacterial culture performed on the biopsied sample. Micro-PET imaging was performed at different time intervals to optimize imaging time.

[2] = test system: Klebsiella pneumoniae (K. pneumoniae); assay: Ex vivo biodistribution in osteomyelitis foreign body rat model with K. pneumoniae infection vs inflammation model; design: species or system rats; conditions: 120 minutes post-injection, comparable SUVs except bladder and feces (FIG. 34)
Method: The acquired PET images were visualized and analyzed for quantifying standardized uptake value (SUV) using image analysis software—MIM 7 software and PMOD. Following final imaging at 120 minutes post-injection, the animal was euthanized, and major organs and infected and inflamed tibia were extracted for gamma counting for ex-vivo biodistribution analysis (see FIG. 22). At the end of last imaging session, rats were euthanized by cardiectomy, and the operated tibia with K-wire or contralateral tibia were aseptically removed. Following removal, tibias were weighed, and Ga-68 radioactivity was counted in 2480 Wizard2 automatic gamma counter for ex-vivo biodistribution assessment. The tibias were then frozen to −80° C. The frozen tibia from each animal was crushed aseptically using a bone pulverizer chilled at −80° C. The crushed tibia without K wire was weighed and vortexed in 1 mL sterile saline. The K wire was also vortexed in 1.0 mL sterile saline separately. The vortexed tibia and K-wire saline suspension were sonicated for 5 minutes. After sonication, 1:10 serial dilutions were prepared in saline and 0.1 mL of each dilution was plated in Trypticase Soy Agar plates with 5% Sheep Blood (TSA II). After 24 hours of incubation at 37° C., the bacterial cultures in tibia suspension and K-wire suspension were quantified. […]

[3] = Biodistribution in normal mice at 120 min post injection; assay type: in vivo; conditions: N = 5, 120 min post injection
Source text: as §1

[4] = test system: E coli; assay: Biodistribution in lung infected mice (E. coli) at 120 min post injection; assay type: in vivo
[5] = n = 3, 2 h post infection with E coli

O=P(O)(O)[O][Ga]1[O]P(=O)(O)[O]1 [[^68Ga]Ga-H3P2O8, [^68Ga]Ga-hydrogen bisphosphate]
SUV ± STD, Adipose ([1]; Adipose): 0.34 ± 0.34 SUV | SUV ± STD, Bladder ([1]; Bladder): 3.11 ± 3.0 SUV | SUV ± STD, Blood ([1]; Blood): 1.83 ± 0.20 SUV | SUV ± STD, Bone ([1]; Bone): 2.73 ± 1.12 SUV | SUV ± STD, Brain ([1]; Brain): 0.81 ± 1.5 SUV | SUV ± STD, Cecum ([1]; Cecum): 1.74 ± 0.55 SUV | SUV ± STD, Eye ([1]; Eye): 3.86 ± 1.71 SUV | SUV ± STD, Feces ([1]; Feces): 0.93 ± 0.43 SUV | SUV ± STD, Gut ([1]; Gut): 1.78 ± 0.10 SUV | SUV ± STD, Heart ([1]; Heart): 0.61 ± 0.14 SUV | SUV ± STD, Infected Thigh ([1]; Infected Thigh): 1.12 ± 0.43 SUV | SUV ± STD, Kidney-1 ([1]; Kidney-1): 3.24 ± 1.19 SUV | SUV ± STD, Kidney-2 ([1]; Kidney-2): 3.28 ± 2.10 SUV | SUV ± STD, Liver ([1]; Liver): 2.02 ± 0.89 SUV | SUV ± STD, Lung-1 ([1]; Lung-1): 2.13 ± 0.54 SUV | SUV ± STD, Lung-2 ([1]; Lung-2): 3.03 ± 0.53 SUV | SUV ± STD, Normal Thigh ([1]; Normal Thigh): 0.25 ± 0.05 SUV | SUV ± STD, Skin ([1]; Skin): 0.88 ± 0.63 SUV | SUV ± STD, Spleen ([1]; Spleen): 0.80 ± 0.69 SUV | SUV ± STD, Stomach ([1]; Stomach): 0.48 ± 0.14 SUV | distribution in organs/excrement of infected model compared with inflammation model [2]: similar | SUV ± STD, Adipose ([3]; Adipose): 0.76 ± 0.38 SUV | SUV ± STD, Bladder ([3]; Bladder): 2.41 ± 2.84 SUV | SUV ± STD, Blood ([3]; Blood): 2.76 ± 0.97 SUV | SUV ± STD, Bone ([3]; Bone): 1.88 ± 1.26 SUV | SUV ± STD, Brain ([3]; Brain): 0.07 ± 0.02 SUV | SUV ± STD, Cecum ([3]; Cecum): 1.33 ± 0.60 SUV | SUV ± STD, Eye ([3]; Eye): 2.30 ± 1.41 SUV | SUV ± STD, Feces ([3]; Feces): 0.82 ± 0.28 SUV | SUV ± STD, Gut ([3]; Gut): 1.15 ± 0.29 SUV | SUV ± STD, Heart ([3]; Heart): 0.87 ± 0.30 SUV | SUV ± STD, Kidney-1 ([3]; Kidney-1): 1.11 ± 0.29 SUV | SUV ± STD, Kidney-2 ([3]; Kidney-2): 0.71 ± 0.20 SUV | SUV ± STD, Liver ([3]; Liver): 1.05 ± 0.42 SUV | SUV ± STD, Lung-1 ([3]; Lung-1): 2.17 ± 0.85 SUV | SUV ± STD, Lung-2 ([3]; Lung-2): 3.22 ± 2.29 SUV | SUV ± STD, Normal Thigh ([3]; Normal Thigh): 0.52 ± 0.23 SUV | SUV ± STD, Skin ([3]; Skin): 0.71 ± 0.38 SUV | SUV ± STD, Spleen ([3]; Spleen): 0.70 ± 0.16 SUV | SUV ± STD, Stomach ([3]; Stomach): 0.49 ± 0.24 SUV | SUV ± STD, Adipose [4, 5]: 0.85 ± 0.64 SUV | SUV ± STD, Bladder [4, 5]: 3.11 ± 2.62 SUV | SUV ± STD, Blood [4, 5]: 2.09 ± 1.31 SUV | SUV ± STD, Bone [4, 5]: 2.70 ± 0.43 SUV | SUV ± STD, Brain [4, 5]: 0.05 ± 0.01 SUV | SUV ± STD, Cecum [4, 5]: 1.61 ± 1.29 SUV | SUV ± STD, Eye [4, 5]: 1.42 ± 1.91 SUV | SUV ± STD, Feces [4, 5]: 1.39 ± 1.10 SUV | SUV ± STD, Gut [4, 5]: 1.93 ± 0.40 SUV | SUV ± STD, Heart [4, 5]: 0.73 ± 0.07 SUV | SUV ± STD, Kidney-1 [4, 5]: 0.92 ± 0.24 SUV | SUV ± STD, Kidney-2 [4, 5]: 1.10 ± 0.09 SUV | SUV ± STD, Liver [4, 5]: 0.86 ± 0.08 SUV | SUV ± STD, Lung-1 [4, 5]: 2.98 ± 1.02 SUV | SUV ± STD, Lung-2 [4, 5]: 2.56 ± 1.82 SUV | SUV ± STD, Normal Thigh [4, 5]: 0.31 ± 0.18 SUV | SUV ± STD, Skin [4, 5]: 1.46 ± 0.41 SUV | SUV ± STD, Spleen [4, 5]: 0.73 ± 0.03 SUV | SUV ± STD, Stomach [4, 5]: 0.46 ± 0.07 SUV | SUV ± STD, Adipose ([4]; n = 4, 24 h post infection): 1.13 ± 0.34 SUV | SUV ± STD, Bladder ([4]; n = 4, 24 h post infection): 4.04 ± 5.22 SUV | SUV ± STD, Blood ([4]; n = 4, 24 h post infection): 2.75 ± 0.39 SUV | SUV ± STD, Bone ([4]; n = 4, 24 h post infection): 2.65 ± 1.75 SUV | SUV ± STD, Brain ([4]; n = 4, 24 h post infection): 0.11 ± 0.02 SUV | SUV ± STD, Cecum ([4]; n = 4, 24 h post infection): 1.59 ± 0.35 SUV | SUV ± STD, Eye ([4]; n = 4, 24 h post infection): 1.39 ± 1.17 SUV | SUV ± STD, Feces ([4]; n = 4, 24 h post infection): 0.71 ± 0.24 SUV | SUV ± STD, Gut ([4]; n = 4, 24 h post infection): 1.72 ± 0.31 SUV | SUV ± STD, Heart ([4]; n = 4, 24 h post infection): 1.04 ± 0.28 SUV | SUV ± STD, Kidney-1 ([4]; n = 4, 24 h post infection): 1.69 ± 0.66 SUV | SUV ± STD, Kidney-2 ([4]; n = 4, 24 h post infection): 1.44 ± 0.37 SUV | SUV ± STD, Liver ([4]; n = 4, 24 h post infection): 1.89 ± 0.47 SUV | SUV ± STD, Lung-1 ([4]; n = 4, 24 h post infection): 1.52 ± 0.29 SUV | SUV ± STD, Lung-2 ([4]; n = 4, 24 h post infection): 1.46 ± 0.51 SUV | SUV ± STD, Normal Thigh ([4]; n = 4, 24 h post infection): 0.33 ± 0.16 SUV | SUV ± STD, Skin ([4]; n = 4, 24 h post infection): 1.08 ± 0.42 SUV | SUV ± STD, Spleen ([4]; n = 4, 24 h post infection): 1.75 ± 0.56 SUV | SUV ± STD, Stomach ([4]; n = 4, 24 h post infection): 0.34 ± 0.13 SUV
